Assay [1] deals with T1, α-N-acetylgalactosaminidase (GalNAcase) from chicken liver (Gallus gallus, UniProt Q90744).
T1 construct: from tissue; host or cells: chicken liver
T1 sequence (Q90744 1-405): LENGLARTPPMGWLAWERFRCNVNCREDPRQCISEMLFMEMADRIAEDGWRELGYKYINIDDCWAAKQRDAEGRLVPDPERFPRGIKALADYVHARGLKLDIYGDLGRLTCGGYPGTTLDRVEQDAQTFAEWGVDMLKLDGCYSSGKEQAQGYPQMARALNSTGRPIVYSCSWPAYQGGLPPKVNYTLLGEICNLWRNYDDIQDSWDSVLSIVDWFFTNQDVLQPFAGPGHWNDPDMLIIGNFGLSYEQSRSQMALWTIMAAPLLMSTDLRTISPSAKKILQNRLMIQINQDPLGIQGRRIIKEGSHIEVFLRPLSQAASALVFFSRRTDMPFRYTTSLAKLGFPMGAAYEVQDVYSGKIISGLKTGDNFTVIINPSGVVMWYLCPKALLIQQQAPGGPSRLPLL
The assay is described as follows: Inhibition of GalNAcase from chicken liver. It counts as biochemical. Conditions: competitive inhibition.

Assay [2] concerns the target α-N-acetylgalactosaminidase (GalNAcase) from Charonia lampas. The assay is described as follows: Inhibition of GalNAcase from Charonia lampas. Type of assay: biochemical. Conditions: competitive inhibition.
The target of assay [3] is β-hexosaminidase from Jack bean. Briefly: Inhibition of β-hexosaminidase from Jack bean. Type of assay: biochemical.
In assay [4] the target is β-hexosaminidase from bovine kidney. The assay is described as follows: Inhibition of β-hexosaminidase from bovine kidney. It counts as biochemical.
Assay [5] deals with β-hexosaminidase from human placenta. Briefly: Inhibition of β-hexosaminidase from human placenta. It counts as biochemical. Conditions: for pKi: 1L non-competitive, 1D competitive.
Assay [6] concerns the target β-hexosaminidase from HL-60. Briefly: Inhibition of β-hexosaminidase from HL-60. Type of assay: biochemical.
The target in assay [7] is T2, coffee bean α-galactosidase (Coffea arabica, UniProt Q42656).
T2 construct: coffee bean α-galactosidase; from tissue; host or cells: coffee bean
T2 sequence (Q42656 16-378): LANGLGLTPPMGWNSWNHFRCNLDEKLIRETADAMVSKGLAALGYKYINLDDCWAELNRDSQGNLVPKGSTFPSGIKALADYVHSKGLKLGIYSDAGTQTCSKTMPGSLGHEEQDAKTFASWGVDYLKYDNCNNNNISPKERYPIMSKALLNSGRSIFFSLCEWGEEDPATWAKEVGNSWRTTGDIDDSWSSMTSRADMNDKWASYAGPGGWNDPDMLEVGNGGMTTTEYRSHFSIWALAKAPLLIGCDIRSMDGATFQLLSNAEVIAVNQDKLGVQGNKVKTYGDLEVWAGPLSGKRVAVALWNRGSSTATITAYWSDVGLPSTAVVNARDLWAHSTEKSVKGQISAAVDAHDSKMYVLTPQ
The assay is described as follows: biochemical.

Assay [8] deals with α-N-acetylgalactosaminidases. Briefly: Inhibition of α-N-acetylgalactosaminidases (source not given). Type of assay: biochemical.
In assay [9] the test system is GalNAcases. Conditions: literature statement; cited from earlier work.
Assay [10] has as its system β-hexosaminidases. Particulars: literature statement; cited from earlier work.

Structures are written as SMILES. pIC50, pKi: −log10 of the molar value.

Broadly, the pKi is the negative decadic logarithm of the Ki, by convention in mol/L. A lower pKi goes with a large Ki. By pIC50 is commonly meant the IC50 on a negative log10 scale, so that one unit is a factor of ten. The low end stands for a large IC50, the high end for a small IC50.

Regarding `CC(=O)N[C@H]1CN[C@H](CO)[C@H](O)[C@@H]1O` [DGJNAc 1D, 2-acetamido-1,2-dideoxy-D-galacto-nojirimycin], the pKi in [1] was 7.09; in assay [2], 6.87; in [5], 5.66. Besides, the pIC50 was 5.74 in assay [3]; 5.38 in assay [4]; 5.08 in assay [5]; 5.66 in assay [6]; 4.19 in assay [7].
Compound `CC(=O)NC1CNC(CO)C(O)C1O` [L-DGJNAc 1L] gave a pKi in assay [5] of 2.96. Further, the “inhibition of α-N-acetylgalactosaminidases” value in assay [8] was “no inhibition”. The “inhibition of coffee bean α-galactosidase” value in assay [7] was “no inhibition”.
Turning to `CC(=O)N[C@H]1c2nc(CC(=O)O)cn2[C@H](CO)[C@H](O)[C@@H]1O` [nagstatin 4, nagstatin], in [9], the “inhibition of GalNAcases” value is “does not inhibit”. Besides, the “inhibition of β-hexosaminidases” value in assay [10] is reported as “potent inhibitor”.

The values are drawn from US20130040990A1, “SYNTHESIS OF DGJNAc FROM D-GLUCURONOLACTONE AND USE TO INHIBIT ALPHA-N-ACETYLGALACTOSAMINIDASES” (The Chancellor, Masters and Scholars of the University of …, priority 2010, published 2013).
